Experimental data from patent US7709514B2, “Therapeutic molecules and methods-1” (Cortical Pty Ltd, priority 2002, dated 2010).
Where two headings read alike, the source gives them in different places.

Key:
[1] = test system: IL-1-induced COX-2 expression; assay: IL-1-induced COX-2 expression in S112 human dermal fibroblasts (MIF-dependent bioassay); assay type: cell-based
Protocol: The activity of compounds was studied in a bioassay utilising MIF-dependent activation of human dermal fibroblasts. […] IL-1-induced COX-2 expression is therefore a MIF-dependent event. […] Prior to experimentation, cells were seeded at 10^5 cells/ml in RPMI/0.1% BSA for 18 hours. […] After 6 hours, cells were collected and intracellular COX-2 protein determined by permeabilisation flow cytometry. […] Cellular fluorescence was determined using a flow cytometer. At least 5000 events were counted for each reading, each of which was performed in duplicate, and the results expressed in mean fluorescence intensity (MFI) after subtraction of negative control-labelled cell fluorescence. The effect of each compound was determined by subtracting the IL-1+compound-treated cell MFI from the IL-1-treated cell (control) MFI and expressed as % inhibition. In each case the % inhibition of IL-1-induced COX-2 expression is expressed as the mean, or mean±SEM where results are available from multiple experiments.

[2] = test system: IL-1 induced phosphorylation of ERK; assay: IL-1 induced phosphorylation (activation) of ERK, Western blotting; assay type: cell-based, human; settings: compound 5 50 μM alone; S112 cells, IL-1 0.1 ng/ml, 30 minutes
Protocol: S112 human dermal fibroblasts cultured in RPMI (serum-free) medium were stimulated with recombinant human IL-1 0.1 ng/ml, as described herein, for 30 minutes, with or without the addition of dexamethasone 10^−9M or benzimidazol-2-one-5-pentanoate (compound 5) (50 μM). The phosphorylation (activation) of ERK was assessed using Western blotting with a mAb specific for the phosphorylated (activated) form of ERK. In brief, cells were disrupted by repeated aspiration through a 21-gauge needle. After incubation on ice for 10 min and microcentrifugation at 3000 rpm for 15 min (4° C.), the supernatants were removed, the protein concentration was determined, and the lysates were stored at −80° C. Equal amounts of cellular proteins were fractionated on 10% SDS-polyacrylamide electrophoresis gels and transferred to polyvinylidene difluoride membranes. Immunoblotting was performed using antibodies directed against phospho-p44/42 (ERK) and total p44142 according to the manufacturer's instructions. The intensity of ERK activation is proportional to the size and optical density (darkness) of the resulting blots. Total ERK blots serve as a loading control, such that changes in phosphorylated ERK represent changes in phosphorylation and not in total ERK protein.

[3] = test system: antigen-specific T cell activation; assay: antigen-specific (mBSA) activation of splenic T lymphocytes, 3H-thymidine incorporation; assay type: cell-based, mice; settings: for EC50: Mus musculus, T-cell, read-out: EC50, inhibition of T cell activation
Protocol: C57BL6/J male mice, aged 7-10 weeks old, were immunised with 200 μg of methylated bovine serum albumin (mBSA) dissolved in 20 μL of saline, emulsified in 200 μL of Freund's complete adjuvant (FCA) by subcutaneous injection. Seven (7) days later mice received a booster immunisation with 100 μg mBSA in 10 μL saline plus 100 μL FCA by subcutaneous injection. After a further seven (7) days mice were killed and spleens collected aseptically into Hanks buffered saline solution (HBSS). A single cell suspension was prepared in Petri dishes by flushing DMEM using a 26G needle and 2 mL syringe. The resulting cell suspension was centrifuged for 5-7 minutes and supernatant discarded. Erythrocytes were lysed using a solution containing 0.579% NH4Cl, 0.000037% EDTA, and 0.1% NaHCO3 in a 37° C. water bath. Tubes were then filled with DMEM and centrifuged for 5-7 minutes. The cell-containing pellet was then resuspended in DMEM containing 5% fetal calf serum TICS) and 0.05% 2-mercapto-ethanol at a concentration of 1×10^6 cells/mL and plated at 1×10^5 cells/well in 96-well plastic tissue culture plates. Test substances (compound or vehicle) were added and incubated for 1 hour in a 37° C., 5% CO2 incubator. The specific stimulating antigen, mBSA, was then added at 10-50 μg/ml and plates incubated for 30 hours in a 37° C., 5% CO2 incubator. Tritiated ^3H-thymidine was then added at a concentration of 0.5 μCi/well for a further 18 hours. Cells were harvested on a Packard cell harvester, and the harvested material added to 750 μL/tube scintillation fluid. Scintillation counts were read on a Wallac beta-emission counter.
The concentration at which T cell activation was suppressed by 50% compared to vehicle-only-treated cells (EC50) was calculated using Prism® software. […] Further compounds were also tested for their ability to inhibit antigen-specific T cell activation as a marker of the inhibition of the cytokine or biological activity of MIF using this assay. Table 5 lists the EC50 for each compound in this assay, performed with concentrations of mBSA of either 50 or 10 μg/ml.

[4] = test system: lymph node and splenic T cells; assay: ex vivo antigen-specific T cell activation after in vivo treatment; design: species or system mice
Text: In vivo administration of such a compound might be expected to exert effects on T cell responsiveness even after the T cells have been removed from exposure to the compound, that is, if T cells were studied ex vivo after in vivo treatment with the MIF antagonist compound. To measure ex vivo antigen-specific T cell activation, draining lymph nodes from arthritic limbs or spleens were removed from mice with murine antigen induced arthritis, induced as above with mBSA, at day 28 after first immunisation and a single cell suspension prepared in DMEM containing 5% FCS and 0.05% 2-mercaptoethanol. 1×10^5 cells/200 μl were cultured in triplicate in the presence or absence of mBSA (0.1, 1.0, 10 μg/ml) in 96-well plates for 48 hours (37° C., 5% CO2.) The T cell proliferation response was determined by measuring ^3H-thymidine incorporation during the final 18 hr. The cells were harvested and radioactivity incorporation into the DNA was measured with a Wallac 1409 liquid scintillation counter. The means of each triplicate culture were calculated. Each experiment comprised at least three individual animals and the results presented represent the mean±SEM of groups of animals in each experiment. The percentage inhibition of T cell proliferation was calculated using the result of the […] incorporation of cells from compound-treated animals subtracted from the ^3H-thymidine incorporation of cells from vehicle-treated animals.

CCCCCOC(=O)c1ccc2[nH]c(=O)[nH]c2c1 [Compound 5]
inhibition at 1 µM ([1]; Homo sapiens, Fibroblast, compound 1 μM, S112 cells, IL-1 0.1 ng/ml, 6 hours): 7.7%
inhibition at 10 µM ([1]; Homo sapiens, Fibroblast, compound 10 μM, S112 cells, IL-1 0.1 ng/ml, 6 hours): 21.4%
inhibition at 25 µM ([1]; Homo sapiens, Fibroblast, compound 25 μM, S112 cells, IL-1 0.1 ng/ml, 6 hours): 34%
inhibition at 50 µM ([1]; Homo sapiens, Fibroblast, compound 50 μM, S112 cells, IL-1 0.1 ng/ml, 6 hours, read-out: % inhibition of IL-1-induced COX-2 expression): 48.4%
inhibition at 100 µM ([1]; Homo sapiens, Fibroblast, compound 100 μM, S112 cells, IL-1 0.1 ng/ml, 6 hours): 52.2%
% Inhibition of IL-1 induced COX-2 expression ([1]; Table 2 experiment, Compound 5 50 μM alone): 45.1%
ERK activation by IL-1 [2]: not inhibited
effect on antigen-specific T cell activation ([3]; FIG. 8, mBSA 50 μg/mL, increasing concentrations): dose-dependent and statistically significant inhibitory effect
EC50 ([3]; mBSA 10 μg/ml): 15.3 µM
EC50 ([3]; mBSA 50 μg/ml): 13.8 µM
ex vivo activation of lymph node T cells in response to mBSA ([4]; FIG. 11a, vs vehicle): reduced proliferative responses
ex vivo splenic T cell proliferation in response to mBSA ([4]; FIG. 11b, table 7, vs vehicle): inhibitory effect
% inhibition of ex vivo splenic T cell activation ([4]; [mBSA] 1 μg/mL): 33%
% inhibition of ex vivo splenic T cell activation ([4]; [mBSA] 10 μg/mL): 30%
